Measured values taken from US20200299671A1, “IMMOBILIZED MULTI-ENZYMATIC HALOGENATION SYSTEM” (priority 2019, published 2020).

Tests used:
[1] = target: T1, PltM (Pseudomonas protegens, UniProt Q4KCZ3); test: In vitro PltM halogenation assay with a single halide salt, substrate profile (Assay 1a-1d), LC-MS; assay type: biochemical; conditions: for iodination by PltM (products identified by LC-MS): NaI as halide source (Assay 1d); for chlorination by PltM (products identified by LC-MS): NaCl as halide source (Assay 1b)
Experimental: The halogenation assays were carried out similarly to a recently described procedure. For substrate profile determination (Assay 1), 100 μL reactions were carried out in 30 mM sodium phosphate pH 7.4. As a halide source, 200 mM of either NaF (Assay 1a), NaCl (Assay 1b), NaBr (Assay 1c), or NaI (Assay 1d) was used. To ensure that PltM is incapable of fluorinating, an additional 200 μL reaction with 300 mM NaF was run. A 200 μL reaction with 400 mM NaBr was also run to ensure no additional bromination reaction occurred. Each reaction also contained a specified substrate (0.5 mM), FAD (0.2 mM), NADPH (5 mM), PltM (5.5 μM), and SsuE (5.0 μM). The reactions were initiated by adding NADPH under N2. The reaction tubes were tightly closed to avoid contact with air. The reaction mixtures were incubated at 25° C. for 3 h prior to extraction with EtOAc (4×100 μL). The organic layer was dried by a gentle flow of air, and the residue was dissolved in MeOH to prepare 1-10 μg/mL samples for LC-MS analysis.
(§1) The halogenation reaction products were analyzed by HPLC or LC-MS by injecting 10 μL of each sample. The compounds were separated by Reversed-phase HPLC at the flow rate of 0.2 mL/min by using the following program: eluent A=H2O; eluent B=MeCN; gradient=2% B for 5 min, increase to 100% B over a 30 min period, stay at 100% B for 9 min, decrease to 2% B over a 1 min period, and re-equilibrate the column at 2% B for 30 min.
(§2) For HPLC analysis, the molecules were observed by absorbance at λ=275 nm as described above. As necessary, the following mass spectrometer was operated in negative and positive modes with the following parameters: For negative mode, mass range, 80-600 m/z in profile mode; temperature, 550° C. and ion spray voltage floating, −4500 V, and for positive mode, mass range, 80-600 m/z in profile mode; temperature, 550° C. and ion spray voltage floating, 4500 V. The presence of each compound was analyzed by extracted ion chromatograph (XIC) with the expected mass ±0.05 Da for Assay 1 and Assay 2 and ±0.005 Da for Assay 3 (FIGS. 2A-C, 8-13, and 17-37; Tables 3-4 and 7).

[2] = target: T1, PltM; test: Optimized in vitro PltM halogenation assay (PltM, SsuE, GDH), overnight overall yield by HPLC; assay type: biochemical; conditions: for % overall conversion (trial 1) / % overall conversion (trial 2): optimized chlorination reaction, sum of all chlorinated products; for % overall conversion (trial 1): first of two independent reactions; for % overall conversion (trial 2): second of two independent reactions; for conversion upon overnight reaction: optimized conditions
Experimental: To increase production of halogenated molecules and decrease the amount of NADPH required, the above in vitro assay was optimized by using an additional enzyme, glucose dehydrogenase (GDH). […] The overall yield of halogenation products was determined for reactions run overnight for several substrates (Table 8). Conversion of the substrate to halogenated products was monitored by HPLC at λ=275-320 nm, where the absorbance of molecules is not affected by halogenation, and quantified as fraction of reaction species (%).
(§3) The time course experiments were performed in duplicate. Compound 1 was unstable under these optimized conditions, and it was not tested. The in vitro analysis of K87A mutant was performed overnight in 100 μL reaction mixture by using the compound 11 as a substrate. Wild-type PltM was used as a positive control, and no enzyme reaction was used as a negative control. In all above reactions, the compounds were extracted with EtOAc (4×100 μL) and dried under gentle air flow.
as §1, §2

[3] = target: T1, PltM; assay type: biochemical; conditions: optimized conditions; for preference for bromination versus iodination: time course
Experimental: To increase production of halogenated molecules and decrease the amount of NADPH required, the above in vitro assay was optimized by using an additional enzyme, glucose dehydrogenase (GDH). […] Conversion of the substrate to halogenated products was monitored by HPLC at λ=275-320 nm, where the absorbance of molecules is not affected by halogenation, and quantified as fraction of reaction species (%).
as §3, with “Compound 1 was unstable under these optimized conditions, and it was not tested.” left out
To determine the halogenation preference, the kinetic parameters were obtained by the global nonlinear regression analysis of all reaction species using DynaFit software for the following halogenation mechanism:
where E, S, P1, P2 are enzyme, substrate, mono- and dihalogenated product, respectively.

[4] = substrate: Oc1cccc(O)c1; test: purified protein, by the assay type; assay type: biochemical; conditions: pH 7.4
[5] = substrate: OCc1cc(O)cc(O)c1Cl; test: purified protein, by the assay type; assay type: biochemical; conditions: other: halogen Cl; labelled species converted to next chlorinated product (for 16: to Cl-16a); pH 7.4
[6] = substrate: OCc1cc(O)cc(O)c1; test: purified protein, by the assay type; assay type: biochemical; conditions: pH 7.4
[7] = substrate: Oc1ccc(Cl)c(O)c1; test: purified protein, by the assay type; conditions: other: halogen Cl; labelled species converted to next chlorinated product (for 16: to Cl-16a); pH 7.4
[8] = substrate: Nc1cccc(O)c1; test: purified protein, by the assay type; conditions: pH 7.4
[9] = other: halogen Br, labelled species converted to next brominated product (for 16: to Br-16a)
[10] = other: halogen Cl, labelled species converted to next chlorinated product (for 16: to Cl-16a)
[11] = other: halogen Br, 16/Br-16b (second mono-brominated product)
[12] = other: halogen Cl, 16/Cl-16b (second mono-chlorinated product)

CC(Cc1ccc(O)cc1)NCC(O)c1cc(O)cc(O)c1 (centres unmarked) [Compound 22, fenoterol, reference compound]
iodination by PltM (products identified by LC-MS) [1]: mono-iodinated

Nc1cccc(N)c1 [Compound 18]
% overall conversion (trial 1) ([2]; overnight): 100, 100% | % overall conversion (trial 2) ([2]; overnight): 100, 100%

Oc1cccc(O)c1 [Compound 3]
dibromination by PltM [3]: dibrominated | preference for bromination versus iodination [3]: preference for bromination | % overall conversion (trial 1) ([2]; overnight): 100, 100% | % overall conversion (trial 2) ([2]; overnight): 100, 100% | conversion upon overnight reaction [2]: 100%

CC(=O)c1c(O)cc(O)cc1O [Compound 15]
% overall conversion (trial 1) ([2]; overnight): 34% | % overall conversion (trial 2) ([2]; overnight): 7%

catechin [Compound 24]
chlorination by PltM (products identified by LC-MS) [1]: mono-chlorinated | iodination by PltM (products identified by LC-MS) [1]: mono-iodinated

OCc1cc(O)cc(O)c1 [Compound 11]
preference for bromination versus iodination [3]: for iodination | % overall conversion (trial 1) ([2]; overnight): 100, 100% | % overall conversion (trial 2) ([2]; overnight): 100, 100% | conversion upon overnight reaction [2]: 100% | product with wild-type PltM ([2]; overnight, conditions of the K87A analysis (positive control)): yields diCl-11 | bromination by PltM (products identified by LC-MS) ([1]; NaBr as halide source (Assay 1c)): Mono-bromination of 11 was observed, but not dibromination | fluorination by PltM (products identified by LC-MS) ([1]; NaF as halide source (Assay 1a)): not dibromination or fluorination

Nc1cccc(O)c1 [Compound 16]
dibromination by PltM [3]: dibrominated | preference for bromination versus iodination [3]: preference for bromination | % overall conversion (trial 1) ([2]; overnight): 100, 100% | % overall conversion (trial 2) ([2]; overnight): 100, 100% | conversion upon overnight reaction [2]: 100%

CC(C)(C)NCC(O)c1cc(O)cc(O)c1 (centres unmarked) [Compound 21, terbutaline, reference compound]
iodination by PltM (products identified by LC-MS) [1]: both mono and di

N[C@@H](Cc1c[nH]c2ccccc12)C(=O)O [Compound 20, L-Trp]
halogenation by PltM (substrate profile) ([1]; tested for chlorination and iodination): not observed

Oc1ccc(C=Cc2cc(O)cc(O)c2)cc1 [Compound 23, resveratrol]
% overall conversion (trial 1) ([2]; overnight): 24% | % overall conversion (trial 2) ([2]; overnight): 20% | chlorination by PltM (products identified by LC-MS) [1]: mono-chlorinated | iodination by PltM (products identified by LC-MS) [1]: mono-iodinated

Cc1cc(O)cc(O)c1 [Compound 9]
% overall conversion (trial 1) ([2]; overnight): 97% | % overall conversion (trial 2) ([2]; overnight): 96%

B1: PltM (Pseudomonas protegens Pf-5) (protein)
chain: MNQYDVIIIGSGIAGALTGAVLAKSGLNVLILDSAQHPRFSVGEAATPESGFLLRLLSKRFDIPEIAYLSHPDKIIQHVGSSACGIKLGFSFAWHQENAPSSPDHLVAPPLKVPEAHLFRQDIDYFALMIALKHGAESRQNIKIESISLNDDGVEVALSNAAPVKAAFIIDAAAQGSPLSRQLGLRTTEGLATDTCSFFTHMLNVKSYEDALAPLSRTRSPIELFKSTLHHIFEEGWLWVIPFNNHPQGTNQLCSIGFQFNNAKYRPTEAPEIEFRKLLKKYPAIGEHFKDAVNAREWIYAPRINYRSVQNVGDRFCLLPQATGFIDPLFSRGLITTFESILRLAPKVLDAARSNRWQREQFIEVERHCLNAVATNDQLVSCSYEAFSDFHLWNVWHRVWLSGSNLGSAFLQKLLHDLEHSGDARQFDAALEAVRFPGCLSLDSPAYESLFRQSCQVMQQAREQARPVAETANALHELIKEHEAELLPLGYSRISNRFILKV
Km [4, 9]: 0.71 ± 0.2 µM | kcat [4, 9]: 0.0317 ± 0.00167 s⁻¹ | kcat/Km [4, 9]: 45000 ± 10000 M⁻¹ s⁻¹ | Km [4, 10]: (7.6 ± 1.3) × 10^−2 μM | kcat [4, 10]: 2.3 ± 0.1^a min^−1 | kcat/Km [4, 10]: 30 ± 5 ^ min^−1μM^−1 | Km [5]: 0.44 ± 0.02 µM | kcat [5]: 0.003 ± 0.000167 s⁻¹ | kcat/Km [5]: 6830 ± 333 M⁻¹ s⁻¹ | Km [6, 9]: (1.1 ± 0.2) × 10^3 μM | kcat [6, 9]: 0.004 ± 0.000333 s⁻¹ | kcat/Km [6, 9]: 3.67 ± 0.333 M⁻¹ s⁻¹ | Km [6, 10]: 8.4 ± 0.4 µM | kcat [6, 10]: 0.0267 ± 0.00167 s⁻¹ | kcat/Km [6, 10]: 3170 ± 167 M⁻¹ s⁻¹ | Km [7]: 0.11 ± 0.02 µM | kcat [7]: 0.00667 s⁻¹ | kcat/Km [7]: 58300 M⁻¹ s⁻¹ | Km [8, 11]: 151 ± 20 µM | kcat [8, 11]: 0.0367 s⁻¹ | kcat/Km [8, 11]: 250 M⁻¹ s⁻¹ | Km [8, 9]: 151 ± 20 µM | kcat [8, 9]: 0.00783 s⁻¹ | kcat/Km [8, 9]: 51.7 M⁻¹ s⁻¹ | Km [8, 12]: 1.1 ± 0.3 µM | kcat [8, 12]: 0.00367 s⁻¹ | kcat/Km [8, 12]: 3170 M⁻¹ s⁻¹ | Km [8, 10]: 1.1 ± 0.3 µM | kcat [8, 10]: 0.00583 s⁻¹ | kcat/Km [8, 10]: 5170 M⁻¹ s⁻¹
